Test results as given in PubChem BioAssay AID1963962 (Molecular Pharmacology Branch, DTP, NCI, 2024).

Tested on: 967376-340-R-J2-PDC multicell spheroid viability
Assay: Anticancer human tumor 967376-340-R-J2-PDC patient-derived colon adenocarcinoma cell line growth inhibition [PI3K]
Details: for IC50: curve of first compound; for viability, T/C: stronger effect = lower value
Summary of the method: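 Tumor cells were combined with HUVEC and MSCs into spheroids, then dosed with PI3K-inhibitor combinations over half-log ranges capped near clinical Cmax or 10 microM.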

[1] = second compound 0.0316 µM, first compound 0.0316 µM
[2] = second compound 0.0316 µM, first compound 0.1 µM
[3] = second compound 0.0316 µM, first compound 0.316 µM
[4] = second compound 0.0316 µM, first compound 1 µM
[5] = second compound 0.0316 µM, first compound 3.16 µM
[6] = second compound 0.0316 µM, first compound 10 µM
[7] = second compound 0.1 µM, first compound 0.0316 µM
[8] = second compound 0.1 µM, first compound 0.1 µM
[9] = second compound 0.1 µM, first compound 0.316 µM
[10] = second compound 0.1 µM, first compound 1 µM
[11] = second compound 0.1 µM, first compound 3.16 µM
[12] = second compound 0.1 µM, first compound 10 µM
[13] = second compound 0.316 µM, first compound 0.0316 µM
[14] = second compound 0.316 µM, first compound 0.1 µM
[15] = second compound 0.316 µM, first compound 0.316 µM
[16] = second compound 0.316 µM, first compound 1 µM
[17] = second compound 0.316 µM, first compound 3.16 µM
[18] = second compound 0.316 µM, first compound 10 µM
[19] = second compound 1 µM, first compound 0.0316 µM
[20] = second compound 1 µM, first compound 0.1 µM
[21] = second compound 1 µM, first compound 0.316 µM
[22] = second compound 1 µM, first compound 1 µM
[23] = second compound 1 µM, first compound 3.16 µM
[24] = second compound 1 µM, first compound 10 µM
[25] = second compound 3.16 µM, first compound 0.0316 µM
[26] = second compound 3.16 µM, first compound 0.1 µM
[27] = second compound 3.16 µM, first compound 0.316 µM
[28] = second compound 3.16 µM, first compound 1 µM
[29] = second compound 3.16 µM, first compound 3.16 µM
[30] = second compound 3.16 µM, first compound 10 µM
[31] = second compound 10 µM, first compound 0.0316 µM
[32] = second compound 10 µM, first compound 0.1 µM
[33] = second compound 10 µM, first compound 0.316 µM
[34] = second compound 10 µM, first compound 1 µM
[35] = second compound 10 µM, first compound 3.16 µM
[36] = second compound 10 µM, first compound 10 µM
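Note: spheroids exposed to agents for 7 days before read-out.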
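Throughout, for viability, T/C: luminescence used as surrogate of cell viability.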

CC(C)NCC(C(=O)N1CCN(c2ncnc3c2C(C)CC3O)CC1)c1ccc(Cl)cc1 (stereo unspecified) + CC(Nc1ncnc2nc[nH]c12)c1cc2cccc(Cl)c2c(=O)n1-c1ccccc1
IC50 (second compound 0.0316 µM): > 10 µM
IC50 (second compound 0.1 µM): > 10 µM
IC50 (second compound 0.316 µM): > 10 µM
IC50 (second compound 1 µM): > 10 µM
IC50 (second compound 3.16 µM): > 10 µM
IC50 (second compound 10 µM): > 10 µM
viability, T/C [1]: 100%
viability, T/C [2]: 80.4%
viability, T/C [3]: 101%
viability, T/C [4]: 96.1%
viability, T/C [5]: 88.6%
viability, T/C [6]: 86.5%
viability, T/C [7]: 102%
viability, T/C [8]: 85%
viability, T/C [9]: 85.4%
viability, T/C [10]: 83.5%
viability, T/C [11]: 84.8%
viability, T/C [12]: 65.1%
viability, T/C [13]: 111%
viability, T/C [14]: 104%
viability, T/C [15]: 101%
viability, T/C [16]: 96.7%
viability, T/C [17]: 90.7%
viability, T/C [18]: 78.5%
viability, T/C [19]: 84.2%
viability, T/C [20]: 90.5%
viability, T/C [21]: 83.9%
viability, T/C [22]: 102%
viability, T/C [23]: 87.4%
viability, T/C [24]: 77.1%
viability, T/C [25]: 94%
viability, T/C [26]: 64.8%
viability, T/C [27]: 77.5%
viability, T/C [28]: 91.1%
viability, T/C [29]: 93.1%
viability, T/C [30]: 79.4%
viability, T/C [31]: 94.8%
viability, T/C [32]: 90.5%
viability, T/C [33]: 68.4%
viability, T/C [34]: 94.2%
viability, T/C [35]: 76.2%
viability, T/C [36]: 86.9%

CCN1CCN(Cc2ccc(Nc3ncc(F)c(-c4cc(F)c5nc(C)n(C(C)C)c5c4)n3)nc2)CC1 + CC(Nc1ncnc2nc[nH]c12)c1cc2cccc(Cl)c2c(=O)n1-c1ccccc1
IC50 (second compound 0.0316 µM): > 1 µM
IC50 (second compound 0.1 µM): > 1 µM
IC50 (second compound 0.316 µM): > 1 µM
IC50 (second compound 1 µM): > 1 µM
IC50 (second compound 3.16 µM): > 1 µM
IC50 (second compound 10 µM): > 1 µM
viability, T/C (second compound 0.0316 µM, first compound 0.00316 µM): 93.1%
viability, T/C (second compound 0.0316 µM, first compound 0.01 µM): 95.1%
viability, T/C [1]: 91.3%
viability, T/C [2]: 73.8%
viability, T/C [3]: 88.5%
viability, T/C [4]: 70.1%
viability, T/C (second compound 0.1 µM, first compound 0.00316 µM): 103%
viability, T/C (second compound 0.1 µM, first compound 0.01 µM): 106%
viability, T/C [7]: 74.9%
viability, T/C [8]: 87.9%
viability, T/C [9]: 74.4%
viability, T/C [10]: 86.8%
viability, T/C (second compound 0.316 µM, first compound 0.00316 µM): 113%
viability, T/C (second compound 0.316 µM, first compound 0.01 µM): 95.7%
viability, T/C [13]: 100%
viability, T/C [14]: 83.9%
viability, T/C [15]: 79.5%
viability, T/C [16]: 65.1%
viability, T/C (second compound 1 µM, first compound 0.00316 µM): 111%
viability, T/C (second compound 1 µM, first compound 0.01 µM): 87%
viability, T/C [19]: 86.8%
viability, T/C [20]: 80%
viability, T/C [21]: 78.6%
viability, T/C [22]: 58.6%
viability, T/C (second compound 3.16 µM, first compound 0.00316 µM): 95.7%
viability, T/C (second compound 3.16 µM, first compound 0.01 µM): 77.7%
viability, T/C [25]: 94.5%
viability, T/C [26]: 72.6%
viability, T/C [27]: 75.9%
viability, T/C [28]: 60%
viability, T/C (second compound 10 µM, first compound 0.00316 µM): 92%
viability, T/C (second compound 10 µM, first compound 0.01 µM): 85.9%
viability, T/C [31]: 72%
viability, T/C [32]: 62%
viability, T/C [33]: 67.3%
viability, T/C [34]: 48.6%

Cn1ncc(Cl)c1-c1cc(C(=O)NC(CN)Cc2cccc(F)c2)sc1Cl (stereo unspecified) + CC(Nc1ncnc2nc[nH]c12)c1cc2cccc(Cl)c2c(=O)n1-c1ccccc1
IC50 (second compound 0.0316 µM): > 10 µM
IC50 (second compound 0.1 µM): > 10 µM
IC50 (second compound 0.316 µM): > 10 µM
IC50 (second compound 1 µM): 9.58 µM
IC50 (second compound 3.16 µM): > 10 µM
IC50 (second compound 10 µM): 6.67 µM
viability, T/C [1]: 99%
viability, T/C [2]: 95%
viability, T/C [3]: 93.6%
viability, T/C [4]: 91.1%
viability, T/C [5]: 66.9%
viability, T/C [6]: 62.5%
viability, T/C [7]: 122%
viability, T/C [8]: 97.3%
viability, T/C [9]: 104%
viability, T/C [10]: 86.7%
viability, T/C [11]: 84.8%
viability, T/C [12]: 71.1%
viability, T/C [13]: 87.2%
viability, T/C [14]: 97.7%
viability, T/C [15]: 86.9%
viability, T/C [16]: 81.4%
viability, T/C [17]: 78.3%
viability, T/C [18]: 64.6%
viability, T/C [19]: 85.3%
viability, T/C [20]: 104%
viability, T/C [21]: 101%
viability, T/C [22]: 86.4%
viability, T/C [23]: 79.1%
viability, T/C [24]: 48.8%
viability, T/C [25]: 101%
viability, T/C [26]: 93.7%
viability, T/C [27]: 104%
viability, T/C [28]: 73.5%
viability, T/C [29]: 73.2%
viability, T/C [30]: 53.6%
viability, T/C [31]: 79.4%
viability, T/C [32]: 88.5%
viability, T/C [33]: 96.7%
viability, T/C [34]: 86.3%
viability, T/C [35]: 60.3%
viability, T/C [36]: 44.4%
